In patent US20220025003A1, “REAGENTS AND METHODS FOR CONTROLLING PROTEIN FUNCTION AND INTERACTION” (University of Washington, priority 2018, published 2022):

Assays:
NS3a = conditions: read-out: NS3a:drug Ki; published enzyme inhibition studies; cited from earlier work
NS3a in NIH3T3 cells = test: Confocal microscopy for colocalization analysis (fixed cells); assay type: cell-based; conditions: 5 μM drug
[1] = test system: RAS/ERK pathway in HEK293 cells; test: Activation of NS3a-CDAR, phospho-ERK blot; assay type: cell-based; conditions: 10 μM drug, 60 min
Description: 18-24 hours prior to transfection, 3.0×10^5 HEK293 cells were plated onto poly-D-lysine 12 well plates. Immediately prior to transfection, media was aspirated and cells were washed with 1 mL of pre-warmed (37° C.) PBS, then serum starved with FBS-free DMEM. Following serum starvation, cells were transfected with 1 μg of FLAG-tagged NS3a-CDAR, BH3-NS3a-CDAR, or an empty pCDNA5 vector. Transfected cells were allowed to serum stave for 18-20 hours prior to drug treatment. For drug treatment, serum-free media was prepared with DMSO or 10 μM of a drug. Media was aspirated, washed once with pre-warmed DPBS, then treated with drug/DMSO media for the requisite amount of time. Media was subsequently aspirated and the cells were washed twice with 1 mL chilled PBS, then lysed with 75 μL Mod. RIPA buffer (50 mM Tris, pH 7.8, 1% IGEPAL CA-630, 150 mM NaCl, 1 mM EDTA, 2 mM Na3VO4, 30 mM NaF, Pierce Protease Inhibitor Tablet). Cleared lysates were subjected to SDS-PAGE and transferred to nitrocellulose. Blocking and antibody incubations were done in TBS with 0.1% Tween-20 (v/v) and blocking buffer (Odyssey). Primary antibodies were all purchased from Cell Signaling Technologies and were diluted as follows: Total ERK (1:2500, #9107), phosphorylated ERK (1:2500, #4370), FLAG (1:2,500, #D6W5B). Blots were washed three times in TBS with 0.1% Tween-20. Antibody binding was detected by using near-infrared-dye-conjugated secondary antibodies and visualized on the LI-COR Odyssey scanner. Blots were quantified via densitometry with Image Studio (LI-COR).

CC(C)(C)OC(=O)N[C@H]1CCCCC/C=C\[C@@H]2C[C@@]2(C(=O)NS(=O)(=O)C2CC2)NC(=O)[C@@H]2C[C@@H](OC(=O)N3Cc4cccc(F)c4C3)CN2C1=O [danoprevir]
Ki (NS3a): 1 nM | Colocalization of DNCR2-EGFP and GNCR1-BFP with NS3a-mCherry-CAAX (NS3a in NIH3T3 cells): DNCR2/NS3a colocalization | Localization of NS3a-mCherry with Tom20-BFP-ANR and DNCR2-EGFP-CAAX (NS3a in NIH3T3 cells): moved to the plasma membrane | Colocalization of NS3a-mCherry with ANR-BFP-CAAX or NLS-DNCR2-EGFP (NS3a in NIH3T3 cells; 15 min): recruited NS3a to the nucleus with NLS-DNCR2-EGFP | Colocalization of NS3a-mCherry with GNCR1-BFP-CAAX or Tom20-DNCR2-EGFP (NS3a in NIH3T3 cells; 15 min): led to colocalization with mitochondria-targeted Tom20-DNCR2-EGFP | phospho-ERK levels in cells expressing NS3a-CDAR [1]: robust increase in phospho-ERK levels
